Measurements reported in paper PMC3335078, “Length and Amino Acid Sequence of Peptides Substituted for the 5-HT3A Receptor M3M4 Loop May Affect Channel Expression and Desensitization” (PLoS ONE, 2012).

What was measured:
[1] = biological target: T1, 5-HT3A-A4 (M3M4 loop replaced by four alanines) (Mus musculus, UniProt P23979); assay: Two-electrode voltage clamp, oocytes expressing 5-HT3A-A4; format: cell-based
T1 construct: expressed in transfected cells; host or cells: Xenopus laevis oocytes injected with mRNA
T1 sequence (P23979 with tags, fused parts or gaps isoform P23979-2 limits assumed): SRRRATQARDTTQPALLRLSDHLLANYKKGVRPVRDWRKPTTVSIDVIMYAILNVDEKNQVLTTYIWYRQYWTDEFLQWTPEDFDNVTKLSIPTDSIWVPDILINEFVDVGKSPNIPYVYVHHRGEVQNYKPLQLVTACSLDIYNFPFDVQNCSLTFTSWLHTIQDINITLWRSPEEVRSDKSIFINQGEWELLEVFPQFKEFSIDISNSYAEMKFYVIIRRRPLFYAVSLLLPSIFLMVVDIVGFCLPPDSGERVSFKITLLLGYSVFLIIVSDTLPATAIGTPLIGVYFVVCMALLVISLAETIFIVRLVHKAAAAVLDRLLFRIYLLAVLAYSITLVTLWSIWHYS
From the text: (§1) The mouse 5-HT3A cDNA with an N-terminal V5 epitope tag was cloned into the pXOON vector as previously described, and is referred to in this paper as “wild-type” (WT). The starting construct for all of the M3M4 loop replacement constructs used in this work was the 5-HT3A-ΔM3M4 construct formed by splicing the cytoplasmic end of M3 (M3-LVHK/QDLQRP…) to the cytoplasmic end of M4 (…WLRVGY/VLDRLL-M4). The splice was made at the site of the “/” to yield the sequence M3-LVHK/VLDRLL-M4 [34]. This removed 115 residues predicted to form the M3M4 loop.
(§2) The construction of the 5-HT3A-glvM3M4 chimera with the 5-HT3A M3M4 loop replaced by the GLIC heptapeptide M3M4 loop (SQPARAA) was described previously. Point mutations, alanine and Gly-Ser-Ala insertions into the 5-HT3A-ΔM3M4 construct were generated with the Quikchange site directed mutagenesis procedure (Stratagene, La Jolla, CA). The entire coding region of all mutant constructs was verified by DNA sequencing (Albert Einstein College of Medicine DNA Sequencing Facility). The pXOON plasmid was linearized using NheI and capped mRNA prepared with T7 RNA polymerase (mMessage mMachine, Ambion, Austin, TX).
Use of Xenopus laevis in this study was carried out in strict accordance with the recommendations in the Guide for the Care and Use of Laboratory Animals of the National Institutes of Health. The protocol was approved by the Albert Einstein College of Medicine Animal Care and Use Committee (Protocol Number: 20081201). All surgery was performed under tricaine anesthesia, and all efforts were made to minimize suffering. Oocyctes were harvested from Xenopus (Nasco Science, Fort Atkinson, WI) anesthetized with 0.15% tricaine. […]
(§3) Currents were recorded under two-electrode voltage clamp from oocytes 2–5 d post-injection as described previously. […]
(§4) Desensitization rates were determined by fitting a single exponential decay function to the current data with Prism 4 software (GraphPad Software). Significant differences compared with wild-type were determined by a one-way ANOVA (p<0.05) using Dunnett's multiple comparison post-hoc test (p<0.05). […]

[2] = biological target: T2, 5-HT3A-A2 (M3M4 loop replaced by two alanines) (Mus musculus, UniProt P23979, DELINS338-452AA); assay: Two-electrode voltage clamp, oocytes expressing 5-HT3A-A2; format: cell-based
T2 construct: expressed in transfected cells; host or cells: Xenopus laevis oocytes injected with mRNA
T2 sequence (P23979 with tags, fused parts or gaps isoform P23979-2 DELINS338-452AA limits assumed): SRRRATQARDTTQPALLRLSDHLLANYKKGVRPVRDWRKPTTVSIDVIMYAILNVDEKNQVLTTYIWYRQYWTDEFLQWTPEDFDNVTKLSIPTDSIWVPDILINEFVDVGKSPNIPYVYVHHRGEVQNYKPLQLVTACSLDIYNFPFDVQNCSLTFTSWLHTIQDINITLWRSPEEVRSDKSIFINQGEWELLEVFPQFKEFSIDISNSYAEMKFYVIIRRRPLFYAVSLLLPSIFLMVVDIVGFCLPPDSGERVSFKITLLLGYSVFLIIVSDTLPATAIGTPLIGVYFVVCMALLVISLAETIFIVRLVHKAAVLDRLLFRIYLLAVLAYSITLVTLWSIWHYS
From the text: as §1, §2
Use of Xenopus laevis in this study was carried out in strict accordance with the recommendations in the Guide for the Care and Use of Laboratory Animals of the National Institutes of Health. The protocol was approved by the Albert Einstein College of Medicine Animal Care and Use Committee (Protocol Number: 20081201). All surgery was performed under tricaine anesthesia, and all efforts were made to minimize suffering. Oocyctes were harvested from Xenopus (Nasco Science, Fort Atkinson, WI) anesthetized with 0.15% tricaine. Oocyctes were defolliculated by incubation in 2 mg ml^−1 Type 1A collagenase (Sigma-Aldrich, St. Louis, MO) in OR2 (85 mM NaCl, 2 mM KCl, 1 mM MgCl2, and 5 mM HEPES; pH adjusted to 7.5 with NaOH) for a 60 or 75 min. Oocytes were washed in OR2 and stored at 16°C in SOS medium: 100 mM NaCl, 2 mM KCl, 1 mM MgCl2, 1.8 mM CaCl2 5 mM HEPES, pH 7.5 with 100 IU ml^−1 penicillin, 100 µg ml^−1 streptomycin, and 250 ng ml^−1 amphotericin B (Invitrogen, Carlsbad, CA) and 5% horse serum (Sigma-Aldrich). 24 hrs following isolation, oocyctes were injected with 23 nl (2.3 ng) of mRNA and were kept in SOS media for 2–5 d at 16°C.
Currents were recorded under two-electrode voltage clamp from oocytes 2–5 d post-injection as described previously. […] The perfusion chamber volume was 200 µl. […]
as §4

[3] = biological target: T3, 5-HT3A M3M4 loop SQPAARA construct (Mus musculus, UniProt P23979); assay: Two-electrode voltage clamp, oocytes expressing SQPAARA loop construct; format: cell-based; settings: 10 µM 5-HT, Xenopus oocytes
T3 construct: expressed in transfected cells; host or cells: Xenopus laevis oocytes injected with mRNA
From the text: as §1
(§5) The construction of the 5-HT3A-glvM3M4 chimera with the 5-HT3A M3M4 loop replaced by the GLIC heptapeptide M3M4 loop (SQPARAA) was described previously. Point mutations, alanine and Gly-Ser-Ala insertions into the 5-HT3A-ΔM3M4 construct were generated with the Quikchange site directed mutagenesis procedure (Stratagene, La Jolla, CA). […]
as §3, §4

[4] = biological target: T4, 5-HT3A construct with single glycine in place of the single alanine (Mus musculus, UniProt P23979, DELINS338-452G); assay: Two-electrode voltage clamp, oocytes expressing single glycine loop construct; format: cell-based; settings: Xenopus oocytes, data not shown
T4 construct: expressed in transfected cells; host or cells: Xenopus laevis oocytes injected with mRNA
From the text: as §1, §5, §3, §4

[5] = biological target: T5, 5-HT3A receptor wild-type (Mus musculus, UniProt P23979); assay: Radioactive 5-HT binding to oocytes expressing WT 5-HT3A; settings: 150 nM [3H]5-HT + 10 µM 5-HT, 5 min room temperature, 45 s cold wash
T5 construct: unrelated to the structural/functional states accessible to a normal full-length 5-HT3A receptor; expressed in transfected cells; host or cells: Xenopus laevis oocytes injected with mRNA
Experimental: (§6) Assays were terminated by five washes with ice cold CFFR buffer, followed by solubilization of the oocytes individually with 200 µl 5% SDS. Total wash time was 45 s. […] All data points represent the average of at least fifteen individual oocytes derived from three separate oocyte isolations.
(§7) To determine the extent of non-specific binding, all binding experiments were performed in parallel with diethylpyrocarbonate-(DEPC)-treated-water injected oocytes or uninjected oocytes.

[6] = biological target: T6, 5-HT3A-A7 (Mus musculus, UniProt P23979); assay: Radioactive 5-HT binding to oocytes expressing 5-HT3A-A7; settings: 150 nM [3H]5-HT + 10 µM 5-HT, 5 min, 45 s cold wash
T6 construct: expressed in transfected cells; host or cells: Xenopus laevis oocytes injected with mRNA
Experimental: as §6, §7

[7] = 10 µM 5-HT, Xenopus oocytes, -60 mV

T5 sequence (P23979 24-483 isoform P23979-2 limits assumed): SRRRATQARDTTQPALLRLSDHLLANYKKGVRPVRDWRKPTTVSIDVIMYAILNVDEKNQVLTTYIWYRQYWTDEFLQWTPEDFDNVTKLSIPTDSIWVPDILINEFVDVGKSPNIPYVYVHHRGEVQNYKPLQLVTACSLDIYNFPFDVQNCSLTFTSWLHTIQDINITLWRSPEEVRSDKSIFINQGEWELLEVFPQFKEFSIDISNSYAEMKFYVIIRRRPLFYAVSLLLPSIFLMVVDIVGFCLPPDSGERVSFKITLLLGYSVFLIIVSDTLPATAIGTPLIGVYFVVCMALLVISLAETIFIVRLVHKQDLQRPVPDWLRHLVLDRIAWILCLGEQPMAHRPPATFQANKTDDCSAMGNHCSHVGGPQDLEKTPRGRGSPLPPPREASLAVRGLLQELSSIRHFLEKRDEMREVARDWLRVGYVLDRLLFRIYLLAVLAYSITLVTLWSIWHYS
T4 sequence (P23979 with tags, fused parts or gaps isoform P23979-2 DELINS338-452G limits assumed): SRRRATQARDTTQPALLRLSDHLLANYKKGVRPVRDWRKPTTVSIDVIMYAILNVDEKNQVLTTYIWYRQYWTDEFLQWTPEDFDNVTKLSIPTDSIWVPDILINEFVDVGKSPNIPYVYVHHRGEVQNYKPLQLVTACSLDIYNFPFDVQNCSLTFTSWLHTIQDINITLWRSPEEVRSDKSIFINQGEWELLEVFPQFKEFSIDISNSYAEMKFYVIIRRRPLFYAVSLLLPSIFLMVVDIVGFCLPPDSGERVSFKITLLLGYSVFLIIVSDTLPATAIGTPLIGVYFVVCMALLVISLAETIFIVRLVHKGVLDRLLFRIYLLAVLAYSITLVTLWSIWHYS
T6 sequence (P23979 with tags, fused parts or gaps isoform P23979-2 limits assumed): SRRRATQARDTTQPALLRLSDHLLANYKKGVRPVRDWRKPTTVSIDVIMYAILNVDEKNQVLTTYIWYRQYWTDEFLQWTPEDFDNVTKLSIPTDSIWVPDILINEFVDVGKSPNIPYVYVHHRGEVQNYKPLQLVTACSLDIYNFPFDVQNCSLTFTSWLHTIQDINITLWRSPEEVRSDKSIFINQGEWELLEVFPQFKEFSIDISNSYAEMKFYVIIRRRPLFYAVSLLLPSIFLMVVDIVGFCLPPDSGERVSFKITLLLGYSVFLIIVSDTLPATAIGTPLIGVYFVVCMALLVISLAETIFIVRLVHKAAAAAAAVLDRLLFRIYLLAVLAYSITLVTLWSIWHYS
T3 sequence (P23979 with tags, fused parts or gaps): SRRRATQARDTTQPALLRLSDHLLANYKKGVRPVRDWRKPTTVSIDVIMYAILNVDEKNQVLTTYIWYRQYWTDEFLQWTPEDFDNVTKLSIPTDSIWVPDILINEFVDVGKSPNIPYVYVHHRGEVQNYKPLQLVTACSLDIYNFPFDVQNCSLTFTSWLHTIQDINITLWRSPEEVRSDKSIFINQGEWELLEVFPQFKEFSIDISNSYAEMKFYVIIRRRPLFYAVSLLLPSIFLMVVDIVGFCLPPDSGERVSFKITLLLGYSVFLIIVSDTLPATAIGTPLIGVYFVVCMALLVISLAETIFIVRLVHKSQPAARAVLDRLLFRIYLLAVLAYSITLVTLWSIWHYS

Structure (SMILES): NCCc1c[nH]c2ccc(O)cc12 [5-HT, 5-hydroxytryptamine]
- 10–90% Activation rise time ([1]; 10 µM 5-HT): 487 ± 25 ms
- Imax (peak current) [1, 7]: 7100±400 nA
- Desensitization time constant τ ([1]; prolonged 10 µM 5-HT): 56 ± 9 s
- nH (Hill coefficient) [2]: 2.0±0.3
- 10–90% Activation rise time ([2]; 10 µM 5-HT): 617 ± 32 ms
- Imax (peak current) [2, 7]: 6900±260 nA
- Desensitization time constant τ ([2]; prolonged 10 µM 5-HT): 43 ± 4 s
- Peak current [3]: 320±25 nA
- 5-HT induced current [4]: neither construct generated any 5-HT induced currents
- Radiolabeled 5-HT bound per oocyte [5]: 2.50±0.3 pmol per oocyte
- Radiolabeled 5-HT bound per oocyte [6]: 0.40±0.08 pmol per oocyte
